Measurements reported in patent US20180282323A1, “Mesoionic imidazole derivatives as insecticides” (BAYER CROPSCIENCE AKTIENGESELLSCHAFT, priority 2015, published 2018).

Key:
[1] = system: Myzus persicae; experiment: Myzus persicae oral test; assay type: in vivo; details: application rate 20 ppm, oral uptake through parafilm, after 5 days
Summary of the method: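 Oral feeding format: mixed-stage Myzus persicae imbibe acetone/water compound formulation in sugared IPL41 medium through parafilm. Efficacy assessed as percent aphids killed at day 5.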

[2] = system: Lucilia cuprina; experiment: Lucilia cuprina test; assay type: in vivo; details: application rate 100 ppm, L1 larvae, after 2 days
Protocol: Lucilia cuprina Test Solvent: dimethyl sulphoxide
To produce a suitable active ingredient formulation, 10 mg of active ingredient are mixed with 0.5 ml of dimethyl sulphoxide, and the concentrate is diluted with water to the desired concentration.
About 20 L1 larvae of the Australian sheep blowfly (Lucilia cuprina) are transferred into a test vessel containing minced horsemeat and the active ingredient formulation of the desired concentration.
After 2 days, the kill in % is determined. 100% means that all the larvae have been killed; 0% means that no larvae have been killed.

[3] = log P by HPLC on reversed-phase column (EEC directive 79/831 Annex V.A8); assay type: physicochemical; details: for log p: HPLC on reversed-phase column (footnote a); for log p a): HPLC on reversed-phase column
Summary of the method: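 Reversed-phase (C18) HPLC at 43° C, following EEC directive 79/831 Annex V.A8.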

[4] = system: Myzus persicae; experiment: Myzus persicae spray test (Chinese cabbage leaf discs); assay type: in vivo; details: application rate 500 g/ha, after 6 days
Summary of the method: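 Active ingredient was formulated in acetone/DMF and diluted with water containing 1000 ppm emulsifier. Chinese cabbage leaf discs infested with all aphid stages were sprayed, and % kill was scored after 6 days (100% = all aphids dead).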

[5] = system: Boophilus microplus; experiment: Boophilus microplus injection test; assay type: in vivo; details: application rate 20 μg/animal, assessed after 7 days by laying of fertile eggs
Protocol: Boophilus microplus—Injection Test Solvent: dimethyl sulphoxide
To produce a suitable active ingredient formulation, 10 mg of active ingredient are mixed with 0.5 ml of solvent and the concentrate is diluted with solvent to the desired concentration.
1 μl of the active ingredient solution is injected into the abdomen of 5 engorged adult female cattle ticks (Boophilus microplus). The animals are transferred into dishes and kept in a climate-controlled room.
Efficacy is assessed after 7 days by laying of fertile eggs. Eggs which are not visibly fertile are stored in a climate-controlled cabinet until the larvae hatch after about 42 days. An efficacy of 100% means that none of the ticks has laid any fertile eggs; 0% means that all the eggs are fertile.

[6] = system: Phaedon cochleariae; experiment: Phaedon cochleariae spray test; assay type: in vivo; details: application rate 500 g/ha, Chinese cabbage leaf discs, larvae, after 7 days
Protocol: Phaedon cochleariae—Spray Test Solvent: 78.0 parts by weight of acetone • • 1.5 parts by weight of dimethylformamide Emulsifier: alkylaryl polyglycol ether
(§1) To produce a suitable active ingredient formulation, 1 part by weight of active ingredient is dissolved with the stated parts by weight of solvent and made up with water containing an emulsifier concentration of 1000 ppm until the desired concentration is attained. To produce further test concentrations, the formulation is diluted with emulsifier-containing water.
Discs of Chinese cabbage leaves (Brassica pekinensis) are sprayed with an active ingredient formulation of the desired concentration and, after drying, populated with larvae of the mustard beetle (Phaedon cochleariae).
After 7 days, the efficacy in % is determined. 100% means that all the beetle larvae have been killed; 0% means that no beetle larvae have been killed.

[7] = system: Ctenocephalides felis; experiment: Ctenocephalides felis in vitro contact test with adult cat fleas; assay type: in vivo; details: application rate 5 μg/cm^2, after 48 h, adult cat fleas dead or moribund
Protocol: Ctenocephalides felis—In Vitro Contact Tests with Adult Cat Fleas
For the coating of the test tubes, 9 mg of active ingredient are first dissolved in 1 ml of acetone p.a. and then diluted to the desired concentration with acetone p.a. 250 μl of the solution are distributed homogeneously on the inner walls and the base of a 25 ml test tube by turning and rocking on an orbital shaker (rocking rotation at 30 rpm for 2 h). With 900 ppm of active ingredient solution and internal surface area 44.7 cm^2, given homogeneous distribution, an area-based dose of 5 μg/cm^2 is achieved.
After the solvent has evaporated off, the tubes are populated with 5-10 adult cat fleas (Ctenocephalides felis), sealed with a perforated plastic lid and incubated in a horizontal position at room temperature and ambient humidity. After 48 h, efficacy is determined. To this end, the test tubes are stood upright and the fleas are knocked to the base of the tube. Fleas which remain motionless at the base or move in an uncoordinated manner are considered to be dead or moribund.
100% efficacy means that all the fleas were dead or moribund. 0% efficacy means that no fleas were harmed.

[8] = system: Diabrotica balteata; experiment: Diabrotica balteata spray test; assay type: in vivo; details: application rate 160 μg/well, wheat grains with beetle larvae, after 7 days
Protocol: Diabrotica balteata—Spray Test Solvent: 78 parts by weight of acetone • • 1.5 parts by weight of dimethylformamide Emulsifier: alkylaryl polyglycol ether
as §1
Pre-swollen wheat grains (Triticum aestivum) are incubated in a multiwell plate filled with agar and a little water for one day (5 seed grains per cavity). The germinated wheat grains are sprayed with an active ingredient formulation of the desired concentration. Subsequently, each cavity is infected with 10-20 beetle larvae of Diabrotica balteata.
After 7 days, the efficacy in % is determined. 100% means that all wheat plants have grown as in the untreated, uninfected control; 0% means that no wheat plant has grown.

[9] = system: Meloidogyne incognita; experiment: Meloidogyne incognita test; assay type: in vivo; details: application rate 20 ppm, formation of galls on lettuce after 14 days
Protocol: Meloidogyne incognita Test Solvent: 125.0 parts by weight of acetone
To produce a suitable preparation of active ingredient, 1 part by weight of active ingredient is mixed with the stated amount of solvent and the concentrate is diluted with water to the desired concentration.
Vessels are filled with sand, active ingredient solution, an egg/larvae suspension of the southern root-knot nematode (Meloidogyne incognita) and lettuce seeds. The lettuce seeds germinate and the plants develop. The galls develop on the roots.
After 14 days, the nematicidal efficacy in % is determined by the formation of galls. 100% means that no galls were found; 0% means that the number of galls on the treated plants corresponds to the untreated control.

[10] = system: Myzus persicae; experiment: Myzus persicae spray test (bell pepper plants); assay type: in vivo; details: application rate 100 ppm, after 6 days
Protocol: Myzus persicae—Spray Test Solvent: 14 parts by weight of dimethylformamide Emulsifier: alkylaryl polyglycol ether
as §1, with “water. If the addition of ammonium salts or/and penetrants is required, these are each added in a concentration of 1000 ppm to the formulation solution.” for “water.”
Bell pepper plants (Capsicum annuum) severely infested with the green peach aphid (Myzus persicae) are treated by spraying with the active ingredient formulation in the desired concentration.
After 6 days, the kill in % is determined. 100% means that all of the aphids have been killed; 0% means that none of the aphids have been killed.

| Structure (SMILES) | efficacy [1] [%] | efficacy (kill in %) [2] [%] | log p [3] | efficacy [4] [%] | efficacy [5] [%] | efficacy [6] [%] | efficacy [7] [%] | efficacy [8] [%] | nematicidal efficacy [9] [%] | efficacy (kill in %) [10] [%] | log p a) [3] |
| --- | --- | --- | --- | --- | --- | --- | --- | --- | --- | --- | --- |
| Cc1cnn(CC(=O)c2c([O-])n(Cc3cnc(Cl)s3)c3cccc[n+]23)c1 [Example I-1-049] | 100 | 100 | 1.72 | 90 | 80 |  |  |  |  |  |  |
| COCC(=O)c1c([O-])n(Cc2cnc(Cl)s2)c2c(C)ccc[n+]12 [Example I-1-082] | 100 |  | 1.46 | 100 |  | 100 | 100 | 100 |  |  |  |
| CCOCC(=O)c1c([O-])n(Cc2cnc(Cl)s2)c2c(C)ccc[n+]12 [Example I-1-083] | 100 |  | 1.72 | 90 |  | 100 |  | 100 |  |  |  |
| Cc1ccc[n+]2c(C(=O)Cn3ccc(Cl)n3)c([O-])n(Cc3cnc(Cl)s3)c12 [Example I-1-093] | 100 |  | 2.23 |  |  | 100 |  |  |  |  |  |
| COc1cnn(CC(=O)c2c([O-])n(Cc3cnc(Cl)s3)c3c(C)ccc[n+]23)c1 [Example I-1-094] |  |  | 1.75 |  |  | 100 |  |  |  |  |  |
| CCCOCC(=O)c1c([O-])n(Cc2cnc(Cl)s2)c2c(C)ccc[n+]12 [Example I-1-097] | 100 |  | 2.11 | 90 |  | 100 |  | 100 |  |  |  |
| CCOCC(=O)c1c([O-])n(Cc2ccc(Cl)nc2)c2c(Cl)ccc[n+]12 [Example I-1-116] | 100 |  | 1.78 |  |  |  |  |  | 90 |  |  |
| O=C(NCC1CC1)c1c([O-])n(Cc2cnc(Cl)s2)c2cccc[n+]12 [Example I-1-143] |  |  | 1.99 |  |  |  | 100 | 100 | 90 |  |  |
| CC(C)CNC(=O)c1c([O-])n(Cc2cnc(Cl)s2)c2cccc[n+]12 [Example I-1-147] | 100 |  | 2.29 |  |  |  | 80 | 100 | 90 | 100 |  |
| O=C(NC1CC1)c1c([O-])n(Cc2ccc(Cl)nc2)c2cccc[n+]12 [Example I-1-154] | 100 | 95 | 1.59 |  |  | 100 |  | 80 |  | 100 |  |
| CC(c1ccc(Cl)nc1)n1c([O-])c(C(=O)CCl)[n+]2ccccc12 (stereo not drawn) [Example I-1-161] | 100 |  | 1.75 |  |  |  |  |  | 90 |  |  |
| Cc1ccc[n+]2c(C(=O)NCc3ccc(Cl)cc3)c([O-])n(Cc3ccc(Cl)nc3)c12 [Example I-1-176] |  |  | 2.92 |  |  |  |  |  | 90 |  |  |
| O=C(NC1CC1)c1c([O-])n(Cc2ccc(Cl)nc2)c2c(OC(F)(F)F)ccc[n+]12 [Example I-1-196] |  |  | 2.33 |  |  |  |  |  | 90 |  |  |
| CC(c1ccc(Cl)nc1)n1c([O-])c(C(=O)NC2CC2)[n+]2ccccc12 (stereo not drawn) [Example I-1-202] | 100 | 100 |  |  | 80 |  |  | 80 |  | 90 | 1.75 |
| Cc1ccccc1NC(=O)c1c([O-])n(Cc2cnc(Cl)s2)c2cccc[n+]12 [Example I-1-239] | 100 |  |  |  |  |  | 100 |  |  |  | 3.03 |
| COc1ccc[n+]2c(C(=O)NC3CC3)c([O-])n(Cc3cnc(Cl)s3)c12 [Example I-1-240] | 100 |  |  |  |  |  | 100 |  |  |  | 1.96 |
| Cc1ccc(Cn2c([O-])c(C(=O)NC3CC3)[n+]3ccccc23)cn1 [Example I-1-243] | 100 |  |  |  |  |  | 100 |  |  |  | 0.81 |
| CC(c1cnc(Cl)s1)n1c([O-])c(C(=O)NC2CC2)[n+]2ccccc12 (stereo not drawn) [Example I-1-254] | 100 | 100 |  | 90 | 80 |  |  | 100 |  |  | 1.94 |
| COC(=O)c1c([O-])n(C(C)c2cnc(Cl)s2)c2cccc[n+]12 (stereo not drawn) [Example I-1-262] |  |  |  |  |  | 83 |  |  |  |  | 1.45 |
| Cc1ccc[n+]2c(C(=O)Nc3c(F)cccc3Cl)c([O-])n(Cc3cnc(Cl)s3)c12 [Example I-1-276] | 100 |  |  | 90 |  |  |  | 100 | 90 |  | 2.93 |
| Cc1ccc[n+]2c(C(=O)Nc3c(Cl)cccc3Cl)c([O-])n(Cc3cnc(Cl)s3)c12 [Example I-1-277] | 100 |  |  |  |  | 83 |  | 100 | 90 |  | 3.11 |
| O=C(Nc1c(Cl)cccc1Cl)c1c([O-])n(Cc2ccc(Cl)nc2)c2cccc[n+]12 [Example I-1-314] | 100 |  |  | 100 |  |  |  |  | 90 |  | 2.59 |
| O=C(Nc1c(F)cccc1Cl)c1c([O-])n(Cc2ccc(Cl)nc2)c2cccc[n+]12 [Example I-1-316] | 100 |  |  | 100 |  |  |  |  | 90 |  | 2.44 |
| Cc1cccc(C)c1NC(=O)c1c([O-])n(Cc2cnc(Cl)s2)c2cccc[n+]12 [Example I-1-321] | 100 |  |  |  |  |  |  |  | 90 |  | 2.76 |
| COc1cccc(F)c1NC(=O)c1c([O-])n(Cc2cnc(Cl)s2)c2cccc[n+]12 [Example I-1-323] | 100 |  |  |  |  |  |  |  | 90 |  | 2.27 |
